Active and inactive are the calls of the source. The rule behind the calls is not given here.
Key:
[1] = Cytotoxicity against human HuH7 cells assessed as reduction in cell viability incubated for 48 hrs by cellTiter-Glo assay; type: cell-based, Huh-7
[2] = Selectivity index, ratio of CC50 for cytotoxicity against human HuH7 cells to EC50 for antiviral activity against H/PF/2013 Zika virus infected in human HuH7 cells; type: toxicity, cell-based; conditions: for selectivity ratio: HuH7 cells, read-out: Ratio CC50/EC50
Zika virus [3] = assay: Antiviral activity against Zika virus H/PF/2013 infected in human HuH7 cells assessed as reduction in viral titer incubated for 24 hrs by plague assay; type: functional, organism-based
Nonstructural protein 3 [4] = target: T1, Nonstructural protein 3 (Zika virus, UniProt A0A024AXB9); assay: (§1) Inhibition of N-terminal unlinked Zika virus NS2B (45 to 96 residues) - NS3 (1 to 177 residues) protease domain expressed in Escherichia coli Bl21(DE3) using Bz-nKRR-AMC as substrate preincubated for 15 mins followed by substrate addition and measured by fluorescence based assay
[5] = Selectivity index, ratio of EC50 of antiviral activity against Zika virus infected in human HuH7 cells to IC50 of inhibition of N-terminal unlinked Zika virus NS2B (45 to 96 residues) - NS3 (1 to 177 residues) protease domain expressed in Escherichia coli Bl21(DE3); type: toxicity
Nonstructural protein 3 [6] = target: T1, Nonstructural protein 3; assay: Inhibition of N-terminal linked Zika virus NS2B (45 to 96 residues) - NS3 (1 to 177 residues) protease domain expressed in Escherichia coli Bl21(DE3) using Bz-nKRR-AMC as substrate preincubated for 15 mins followed by substrate addition and measured by fluorescence based assay
Nonstructural protein 3 [7] = target: T1, Nonstructural protein 3; assay: Inhibition of N-terminal His6-tagged Zika virus NS2B (49 to 95 residues) - NS3 (1 to 170 residues) protease domain expressed in Escherichia coli Bl21(DE3) using Bz-Nle-Lys-Lys-Arg-AMC as substrate preincubated for 10 mins followed by substrate addition measured after 10 mins by fluorescence based assay
Zika virus [8] = assay: Antiviral activity against Zika virus; type: functional, organism-based
[9] = target: Nonstructural protein 3 (Zika virus) (UniProt A0A024AXB9); assay: as §1, with “Non-competitive inhibition” for “Inhibition”, “30” for “15”, “measured for every 60 sec over 12 mins” for “measured”, “Lineweaver-burk plot analysis” for “assay”
[10] = Cytotoxicity against human A549 cells assessed as reduction in cell viability incubated for 42 hrs by WST-8 assay; type: cell-based
[11] = Selectivity index, ratio of EC50 of antiviral activity against Zika virus infected in human A549 cells to IC50 of inhibition of N-terminal His6-tagged Zika virus NS2B (49 to 95 residues) - NS3 (1 to 185 residues) protease domain expressed in Escherichia coli Bl21(DE3); type: toxicity
Nonstructural protein 3 [12] = target: T1, Nonstructural protein 3; assay: Inhibition of N-terminal His-tagged Zika virus NS2B (49 to 95 residues) - NS3 (1 to 185 residues) protease domain expressed in Escherichia coli Bl21(DE3) using TAMRA-RRRRSAG-GXL570 as substrate preincubated for 30 mins followed by substrate addition measured after 1 hr by fluorescence based assay
Nonstructural protein 3 [13] = target: T1, Nonstructural protein 3; assay: Inhibition of N-terminal His6-tagged Zika virus NS2B (45 to 96 residues) - NS3 (1 to 177 residues) protease domain expressed in Escherichia coli Bl21(DE3) using Bz-nKRR-AMC as substrate preincubated for 30 mins in presence of bZipro and measured for 60 sec over 10 mins by fluorescence based assay
Nonstructural protein 3 [14] = target: T1, Nonstructural protein 3; assay: Inhibition of N-terminal His-tagged Zika virus NS2B (46 to 99 residues) - NS3 (1 to 187 residues) protease domain expressed in Rosetta2-(DE3) assessed as inhibitory constant using Boc-Gly-Arg-Arg-AMC as substrate and measured for 10 mins by fluorescence based assay
Nonstructural protein 3 [15] = target: T1, Nonstructural protein 3; assay: Inhibition of N-terminal His6-tagged Zika virus NS2B (46 to 99 residues) - NS3 (1 to 187 residues) protease domain expressed in Rosetta2-(DE3) using Boc-Gly-Arg-Arg-AMC as substrate preincubated for 10 mins followed by substrate addition and measured for 6 mins by fluorescence based assay
[16] = Zika virus, H/PF/2013, Huh-7, 24 h, read-out: EC50

T1 sequence (A0A024AXB9 whole entry, the tested form may be a part): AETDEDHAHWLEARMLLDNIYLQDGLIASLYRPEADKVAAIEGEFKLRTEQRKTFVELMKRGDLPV
Nonstructural protein 3 (Zika virus), sequence (A0A024AXB9 as listed by the source): as the sequence (A0A024AXB9 whole entry, the tested form may be a part) above

Row | Structure (SMILES) | CC50 at 48 h [1] | selectivity ratio [2] | EC50 (Zika virus [3]; [16]) | IC50 (Nonstructural protein 3 [4]) | other results
1 | N=C(N)c1cccc(-c2ccc3c(c2)c2cc(Br)ccc2n3S(=O)(=O)c2cccc(C(=N)N)c2)c1 | 35.7 µM | 4.2 | 5.9 µM | 9.19 µM | Selectivity Index [5]: 1 to 10
2 | Cn1c2ccc(Br)cc2c2cc(-c3cccc(C(=N)N)c3)ccc21 | 6.57 µM | 5.42 | 1.35 µM | 13.9 µM | –
3 | Cn1c2ccc(-c3cccc(C#N)c3)cc2c2cc(-c3cccc(C(=N)N)c3)ccc21 | 6.25 µM | – | – | 1.7 µM | EC50 (Zika virus [3]): Not Active
4 | N=C(N)c1cccc(NC(=O)Nc2cccc(C(=N)N)c2)c1 [AMICARBALIDE] | – | – | – | – | IC50 (Nonstructural protein 3 [6]): 47.6 µM
5 | CC(C)C[C@H]1C(=O)N2CCC[C@H]2[C@]2(O)O[C@](NC(=O)[C@@H]3C=C4c5cccc6[nH]c(Br)c(c56)C[C@H]4N(C)C3)(C(C)C)C(=O)N12 [BROMOCRIPTINE] | – | – | – | – | IC50 (Nonstructural protein 3 [7]): 13 µM
6 | CO[C@@H]1[C@@H](OC(N)=O)[C@@H](O)[C@H](Oc2ccc3c(O)c(NC(=O)c4ccc(O)c(CC=C(C)C)c4)c(=O)oc3c2C)OC1(C)C [NOVOBIOCIN] | – | – | – | – | EC50 (Zika virus [8]): 62.2 µM
7 | Cn1c2ccc(-c3cccc(C(=N)N)c3)cc2c2cc(-c3cccc(C(=N)N)c3)ccc21 | 47.5 µM | 38 | 1.25 µM | 0.52 µM | inhibition [9]: Active; IC50 (Nonstructural protein 3 [6]): 3.65 µM; Selectivity Index [5]: 3
8 | N=C(N)c1cccc(-c2ccc3ccc(-c4cccc(C(=N)N)c4)cc3c2)c1 | – | – | 4.95 µM | 32.5 µM | IC50 (Nonstructural protein 3 [6]): 49.5 µM
9 | N=C(N)c1cccc(Cn2c3ccc(Br)cc3c3cc(Br)ccc32)c1 | 12.8 µM | 2.51 | 5.09 µM | 25.6 µM | –
10 | COc1cccc(S(=O)(=O)n2c3ccc(Br)cc3c3cc(-c4cccc(C(=N)N)c4)ccc32)c1 | 5.22 µM | – | – | 8.1 µM | Ratio CC50/EC50 [2]: Not Active; EC50 (Zika virus [3]): Not Active
11 | COc1cccc(Cn2c3ccc(-c4cccc(C#N)c4)cc3c3cc(-c4cccc(C(=N)N)c4)ccc32)c1 | 3.3 µM | 2.8 | 1.95 µM | 1.91 µM | –
12 | N#Cc1cccc(-c2ccc3c(c2)c2cc(-c4cccc(C#N)c4)ccc2n3Cc2cccc(C(=N)N)c2)c1 | 7.48 µM | – | – | 14.9 µM | EC50 (Zika virus [3]): Not Active
13 | COc1cccc(Cn2c3ccc(-c4cccc(C(=N)N)c4)cc3c3cc(-c4cccc(C(=N)N)c4)ccc32)c1 | 22.7 µM | 3.4 | 6.37 µM | 1.75 µM | Selectivity Index [5]: 1 to 10
14 | COc1cccc(S(=O)(=O)n2c3ccc(-c4cccc(C(=N)N)c4)cc3c3cc(-c4cccc(C(=N)N)c4)ccc32)c1 | > 100 µM | > 4 | 23.8 µM | 0.99 µM | Selectivity Index [5]: 1 to 10
15 | N=C(N)c1cccc(-c2cccc(-c3cccc(C(=N)N)c3)c2)c1 | – | – | – | 38.3 µM | IC50 (Nonstructural protein 3 [6]): 104 µM
16 | COc1cccc(S(=O)(=O)n2c3ccc(-c4cccc(C#N)c4)cc3c3cc(-c4cccc(C(=N)N)c4)ccc32)c1 | 37.9 µM | 2.37 | 16 µM | 0.82 µM | Selectivity Index [5]: 1 to 10
17 | O=C1C=C/C(=N/Nc2ccc([N+](=O)[O-])cc2Cl)C=C1C(=O)Nc1cccc(Cl)c1 | – | – | – | – | CC50 at 42 h [10]: 48.8 µM; Selectivity Index [11]: 48; IC50 (Nonstructural protein 3 [12]): 0.38 µM
18 | COc1ccc(S(=O)(=O)n2nc(OC(=O)c3cccc(-c4ccccc4Cl)c3)cc2N)cc1 | – | – | – | – | IC50 (Nonstructural protein 3 [13]): 0.1 µM
19 | N=C(N)c1cccc(S(=O)(=O)n2c3ccc(Br)cc3c3cc(Br)ccc32)c1 | 6.58 µM | 4.14 | 3.26 µM | 14.2 µM | –
20 | COc1cccc(Cn2c3ccc(Br)cc3c3cc(-c4cccc(C(=N)N)c4)ccc32)c1 | 5.3 µM | 2.3 | 2.27 µM | 4.04 µM | –
21 | N#Cc1cccc(-c2ccc3c(c2)c2cc(-c4cccc(C#N)c4)ccc2n3S(=O)(=O)c2cccc(C(=N)N)c2)c1 | 3.35 µM | – | – | 3.5 µM | EC50 (Zika virus [3]): Not Active
22 | COc1ccc(Cl)c2sc(NC(=O)c3ccccc3NS(=O)(=O)c3ccc(C)cc3)nc12 | – | – | – | – | Ki (Nonstructural protein 3 [14]): 9 µM; IC50 (Nonstructural protein 3 [15]): 4.1 µM
